Laboratory results published in ChEMBL document CHEMBL3044993, “Structural confirmation of 15-norlubiminol and 15-norepilubiminol, isolated from Solanum aethiopicum, by chemical conversion from lubimin and epilubimin, and their antifungal activity” (2001).

How the values were obtained:
[1] = tested on: Fusarium oxysporum f. sp. melongenae; assay: Antifungal activity against Fusarium oxysporum f. sp. melongenae assessed as spore germination rate at 100 ppm relative to untreated control; format: functional
[2] = tested on: Verticillium dahliae; assay: Antifungal activity against Verticillium dahliae assessed as spore germination rate at 100 ppm relative to untreated control; format: functional

Row | SMILES | Activity [1] [%] | Activity [2] [%]
1 | C=C(C)[C@@H]1CC[C@]2(C1)[C@H](C)C[C@H](O)C[C@H]2O [15-NOREPILUBIMINOL] | 113 | 57
2 | C=C(C)[C@@H]1CC[C@]2(C1)[C@H](C)C[C@H](O)C[C@@H]2O [15-NORLIBIMINOL] | 114 | 52
3 | C=C(C)[C@@H]1CC[C@]2(C1)[C@H](C)C[C@H](O)C[C@H]2C=O [EPILUBIMIN] | 30 | 54
4 | C=C(C)[C@@H]1CC[C@]2(C1)[C@H](C)C[C@H](O)C[C@@H]2C=O [LUBIMIN] | 5 | 42
